Columns and labels:
cyclin D1-cdk4 [1] = target: T1, cyclin D1-cdk4 (Homo sapiens, UniProt P11802); assay: Assay of Cyclin D1-cdk4 kinase activity with the ING peptide as substrate; type: biochemical; conditions: 200 uM ING peptide, 300 uM ATP, 60 minutes, room temperature
Procedure: Assay of Cyclin D1-cdk4 kinase activity with the ING Peptide as Substrate
The cyclin D1-cdk4 kinase activity of a compound was assayed by preparing a 100 ul reaction at the following concentrations: 35 mM Hepes pH 7.0, 10 mM MgCl2, 300 uM ATP, 200 uM ING peptide, 1.0 uCi of γ-^33P-ATP, 4.34 ug of cyclin D-cdk4 enzyme, 4% DMSO, and various concentrations of inhibitor. The reaction was incubated at room temperature (about 74° F.) for 60 minutes, and then terminated by the addition of 100 ul of 10% phosphoric acid. Next, the reaction was filtered through a Millipore Multiscreen-PH Plate—Catalog number MAPH NOB 10, and the plate was washed 2 times with 320 ul each of 0.5% phosphoric acid, followed by the addition of 100 ul of scintillation fluid and quantitation on a Packard Instruments, Top Count, scintillation counter.

cyclin D1-cdk4 [2] = target: T1, cyclin D1-cdk4; assay: Assay of Cyclin D1-cdk4 kinase activity with the Rb21 protein as substrate; type: biochemical; conditions: 5 ug Rb21 protein, 30 uM ATP, 60 minutes, room temperature; read-out: Kinase Activity with Rb2l
Procedure: Assay of Cyclin D1-cdk4 Kinase Activity with the Rb21 Protein as Substrate
The cyclin D1-cdk4 kinase activity of a compound was assayed by preparing a 100 ul reaction at the following concentrations: 20 mM Hepes pH 7.0, 10 mM MgCl2, 30 uM ATP, 5 ug of Rb21 protein (Santa Cruz Biotech, Catalog # sc-4112), 1.0 uCi of γ-^33P-ATP, 1.09 ug of cyclin D-cdk4 enzyme, 4% DMSO, and various concentrations of inhibitor. The reaction was incubated at room temperature (about 74° F.) for 60 minutes, and then terminated by the addition of 100 ul of 25% trichloroacetic acid. Next, the reaction was filtered through a Millipore Multiscreen-FC Plate—Catalog number MAFC NOB 10, and the plate was washed 2 times with 320 ul each of 10% trichloroacetic acid, followed by the addition of 100 ul of scintillation fluid and quantitation on a Packard Instruments, Top Count, scintillation counter.

[3] = test system: HCT-116 or NCI H460 cells; assay: Cell growth inhibition assay (MTT); type: cell-based; conditions: 72 h drug exposure
Procedure: Cell Growth Inhibition Assay The MTT assay was used to measure growth inhibitory activity (Schultz, R. M., et. al. Oncology Res. 5, 223-228, 1993). […] Basically, 1000 HCT-116 or NCI H460 cells were added per well to 96-well flat-bottom plates in 100-ul RPMI 1640 medium containing 10% dialyzed fetal bovine serum. The plates were incubated for 24 h prior to addition of test compounds. A stock solution (10 mM) was prepared in DMSO and serially diluted in medium. Compound dilutions were added to triplicate wells, and the plates were incubated for 72 hours.

[4] = test system: HCT-116 and NCI H460 cell lines; assay: Cell cycle analysis using flow cytometry; type: cell-based; conditions: compound at 1x IC50 and 3x IC50, 24 hours, DNA histogram analysis
Procedure: Cell Cycle Analysis Using Flow Cytometry
The HCT-116 and NCI H460 cell lines were seeded in 75 cm^2 flasks at 5×10^5 cells/25 ml RPMI 1640 medium containing 10% dialyzed fetal bovine serum. They were incubated for 24 hours. […] The cells were subsequently harvested and the protocol (Robinson, J. P. and Darzynkiewicz, Z. Current Protocols in Cytometry. 1997) for staining was followed. DNA histogram analysis was performed using ModFit LT(Verity House).

[5] = test system: Ser-780 pRb phosphorylation in HCT116 cells; assay: Inhibition of Rb phosphorylation assay; type: cell-based, Human; conditions: 1x, 2x and 3x IC50, 24 hours, immunoblot
Procedure: Inhibition of Rb Phosphorylation Assay
Human HCT116 colon carcinoma cell line was purchased from American Tissue Culture Collection (Rockville, Md.) and maintained as monolayer in RPMI-1640 with L-Glutamine and 25 mM HEPES supplemented with 10% fetal bovine serum in a 37° C. incubator with a 10% CO2 atmosphere. The detection of mycoplasm in cultured cells was performed using Mycoplasma Rapid Detection System (TaKaRa Shuzo Co. Ltd., Shiga, Japan) every 2-3 months and the cells were found consistently negative throughout these experiments. The Rb phosphorylation assay was done be plating 4×10^5 cells/well in 6-well plates. […] At the end of the incubation period the mediumj was removed and the cells were washed twice with cold PBS containing 1 mM sodium orthovanadate (Na3VO4). […] Protein concentration was determined by the Bio-Rad DC protein assay (Bio-Rad, Hercules, Calif.). […] Proteins were detected by capturing image of the membrane using Quantity One Software on a Fluor-S multi-Imager (Bio-Rad, Hercules, Calif.) in a linear range. Specific bands were quantified using Quantity One Software. […] Results are expressed as a percentage inhibition of Ser-780 pRb phosphorylation in drug treated cells versus control DMSO treated cells.

protein kinase C = conditions: cited from earlier work
protein kinase A = conditions: cited from earlier work

T1 sequence (P11802 whole entry): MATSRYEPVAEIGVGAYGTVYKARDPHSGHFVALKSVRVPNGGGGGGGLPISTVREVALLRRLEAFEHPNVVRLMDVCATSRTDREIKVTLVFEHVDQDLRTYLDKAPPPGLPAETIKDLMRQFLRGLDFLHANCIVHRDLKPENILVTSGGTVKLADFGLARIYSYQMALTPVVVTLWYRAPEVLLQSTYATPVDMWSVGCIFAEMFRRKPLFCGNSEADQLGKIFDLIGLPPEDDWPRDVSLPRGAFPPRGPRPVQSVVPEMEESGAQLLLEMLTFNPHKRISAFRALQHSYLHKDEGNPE
T1 sequence (P24385 whole entry partner): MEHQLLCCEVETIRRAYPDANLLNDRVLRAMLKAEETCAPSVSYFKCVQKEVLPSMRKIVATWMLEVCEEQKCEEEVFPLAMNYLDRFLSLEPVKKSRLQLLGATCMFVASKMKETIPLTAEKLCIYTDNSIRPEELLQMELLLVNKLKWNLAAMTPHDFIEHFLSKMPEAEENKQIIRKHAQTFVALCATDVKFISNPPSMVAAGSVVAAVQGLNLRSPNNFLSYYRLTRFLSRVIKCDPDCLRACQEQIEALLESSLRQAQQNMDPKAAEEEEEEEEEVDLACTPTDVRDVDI

IC50 (cyclin D1-cdk4 [1])	Structure (SMILES)	further results
186 nM	CC1(C)CCn2cc(C3=C(c4cn5c6c(cccc46)CNCC5)C(=O)NC3=O)c3cc(F)cc1c32	
	O=C1NC(=O)C(c2cn3c4c(cccc24)NCCC3)=C1c1cn2c3c(cccc13)CCC2 [drawing 50]	IC50 (cyclin D1-cdk4 [2]): 196 nM
143 nM	O=C1NC(=O)C(c2cn3c4c(cccc24)NCCC3)=C1c1cn2c3c(cccc13)CCC2 [drawing 43]	
537 nM	CC1(C)CCn2cc(C3=C(c4cn5c6c(cccc46)CNCC5)C(=O)NC3=O)c3cccc1c32	
	O=C1NC(=O)c2c1c1c3cccc4c3n(c1c1c2c2cccc3c2n1CCCNC3)CCC4 [drawing 48]	IC50 (cyclin D1-cdk4 [2]): 336 nM
413 nM	CC1(C)CCn2c3c1cc(F)cc3c1c3c(c4c5cccc6c5n(c4c12)CCNC6)C(=O)NC3=O	
605 nM	O=C1NC(=O)c2c1c1c3cccc4c3n(c1c1c2c2cccc3c2n1CCCNC3)CCC4 [drawing 39]	
621 nM	CC1(C)Cc2cccc3c(C4=C(c5cn6c7c(cccc57)CNCC6)C(=O)NC4=O)cn(c23)C1	
	Cl.O=C1NC(=O)c2c1c1c3cccc4c3n(c1c1c2c2cccc3c2n1CCNC3)CCC4 [Example 5]	cell growth inhibition [3]: inhibit cell growth; cell cycle arrest [4]: arrest cells in the G1 phase of the cell cycle; inhibition of Ser-780 pRb phosphorylation [5]: inhibit Rb (retinoblastoma protein) phosphorylation
51 nM	CC1(C)Cc2cccc3c4c5c(c6c7cccc8c7n(c6c4n(c23)C1)CCNC8)C(=O)NC5=O	
	CN1CC[C@H](c2c(O)cc(O)c3c(=O)cc(-c4ccccc4Cl)oc23)[C@H](O)C1 [Flavopiridol]	concentration at which protein kinase C is inhibited (protein kinase C): ≥ 10 μM/L; concentration at which protein kinase A is inhibited (protein kinase A): ≥ 10 μM/L
35.4 nM	O=C1NC(=O)c2c1c1c3cccc4c3n(c1c1c2c2cccc3c2n1CCNC3)CCC4 [drawing 40]	
349 nM	CC1(C)CCc2cccc3c(C4=C(c5cn6c7c(cccc57)CNCC6)C(=O)NC4=O)cn1c23	
	O=C1NC(=O)c2c1c1c3cccc4c3n(c1c1c2c2cccc3c2n1CCNC3)CCC4 [drawing 49]	IC50 (cyclin D1-cdk4 [2]): 5.8 nM
